Laboratory results as given in publication PMC5697638, “Identification of a Potent Phosphoinositide 3‐Kinase Pan Inhibitor Displaying a Strategic Carboxylic Acid Group and Development of Its Prodrugs” (Chemmedchem, 2017).

Key:
[1] = test system: PC3 cells; assay: PC3 cell proliferation (MTT); assay type: cell-based; design: key to Cell proliferation: active: Active: able to reduce proliferation to an extent greater than 50 %; inactive: able to reduce proliferation to an extent less than 50 %; conditions: PC3 cells, 10 μM of each prodrug
Method: The biological activity of each prodrug was tested by analyzing their ability to decrease PC3 proliferation as a rapid test to evaluate the PI3Ks inhibitory activity after hydrolysis in a cell‐based assay. […] The choice of using such a cut‐off was due to the intent to identify rapidly which prodrug could be hydrolyzed in the assay to release the active compound. As expected, a good correlation between rate of hydrolysis and cellular activity was observed, and esters 64–68 and 70–73 were determined to be good candidates for topical use. We decided to focus our attention on ester 64, as its half‐life was a good compromise for a prodrug. The EC50 value of this ester was then evaluated on PC3 cells, and a value of (2.3±0.8) μM was obtained.
Cell proliferation: PC3 cell proliferation was measured with a 3‐(4,5‐dimethyl thiazol‐2‐yl)‐2,5‐diphenyltetrazolium bromide (MTT)‐based colorimetric assay (#11 465 007 001 Roche Diagnostic GmbH, Germany). PC3 cells were seeded in a 96‐well plate at a concentration of 10^4 cells mL^−1. PC3 cells were treated for 72 h with increasing concentrations of 64, and MTT was added. After ON solubilization of the MTT metabolite, formazan, the absorbance (λ=550–600 nm absorbance, with a reference wavelength of 650 nm) of each well was read in a multi‐well reader (Glomax multi detection system, Promega, model number 9301‐010). The percentage of proliferating cells was calculated by relating each absolute value to the control intended as PC3 cells treated with DMSO alone. An IC50 value was then derived by plotting all data on a dose–response curve (Graph Pad software) by using nonlinear regression fit (equation [log agonist] versus response).

[2] = metabolic stability in rat liver microsomes (RLM); assay type: in vitro ADME; conditions: RLM, 50 μM substrate, with NADPH; for Residual microsomal substrate (t=60 min): LC–UV
Method: (§1) Twelve esters were prepared (see the Experimental Section for their synthesis and the Supporting Information for chromatographic methods) and evaluated in terms of metabolic stability. For this task, a combined approach based on microsomal and plasmatic stability assays was exploited considering the relevance of the plasmatic and hepatic tissues in esterase activity. Microsomal stability of the selected esters was evaluated by monitoring the disappearance of the substrate incubated in rat liver microsomes (RLM) at 50 μM concentration, in the presence of NADPH. In Table 4, the percentage of the remaining substrate, after incubation (t=60 min), with respect to the initial amount is reported. Overall, the compounds underwent a relevant metabolic transformation, and the substrate depletion ranged from 0 (for 76) to 100 % (for 70). This is mainly due to hydrolysis of the ester function, whereas the metabolites arising from the oxidation catalyzed by the NADPH‐dependent monooxygenase system were negligible from a quantitative point of view. Indeed, the main metabolite formed during the incubation of the esters was corresponding carboxyl derivative 37. […] Moreover, whereas CH2‐pyridin‐4‐yl ester 70 was completely metabolized, corresponding benzyl derivative 65 and piperonyl derivative 72 were more hydrolytically stable, and their residual substrates were 53 and 83 %, respectively. The hydrolytic stability of the selected esters was also evaluated by monitoring the depletion of the substrate incubated at a 50 μM concentration in mouse plasma over a period of 30 min. As expected, the plasmatic metabolic fate of the esters was characterized by the formation of 37 as the only metabolite (see Figure S4). The rate constant k [min^−1], derived for the substrate peak area versus time curve (single‐exponential decay equation—GraphPad Prism software, Inc., San Diego, CA (USA); see Figure S5) was used to calculate the in vitro half‐life t 1/2 [min], and the values are reported in Table 4.
Metabolic stability of PI3K inhibitors in RLM fraction
The standard incubation mixture (500 µL final volume), in 1.5 mL Eppendorf tubes, was carried out in a 50 mM TRIS-HCl buffer (pH 7.4) containing 3.3 mM MgCl2, 1.3 mM NADPNa2, 3.3 mM glucose 6-phosphate, 0.4 Units/mL glucose 6-phosphate dehydrogenase (NADPH regenerating system), acetonitrile as cosolvent (1% of final volume) and 50 µM of substrate. After pre-equilibration of the mixture, an appropriate volume of rat microsomal suspension was added to give a final protein concentration of 1 mg/mL. The mixture was shaken for 1 hour at 37°C and the reaction was quenched by diluting the samples with 500 µL of ice-cold acetonitrile. The samples were then centrifuged at 13,000 rpm for 10 min, and the supernatant was directly injected onto the HPLC column for analysis. Control incubations were performed without microsomes. […]
(§2) A Shimadzu HPLC system (Shimadzu, Kyoto, Japan), consisting of two LC-10AD Vp module pumps, an SLC-10A Vp system controller, an SIL-10AD Vp autosampler, and a DGU-14-A on-line degasser was used for the analysis. All the chromatographic separations were performed on a Phenomenex Luna C18 5µm (150 x 4.6 mm i.d.) (Phenomenex srl, Castel Bolognese, Italy) as a stationary phase protected by a Luna C18 SecurityGuard (Phenomenex srl). The SPD-M10Avp photodiode array detector was used to detect the analyte at 254 nm. LC Solution 1.24 software was used to process the chromatograms. Aliquots (20 µL) of supernatants obtained from incubations were injected onto the HPLC system and eluted with a mobile phase (flow rate: 1 mL/min) consisting of solvent A- 0.5% aqueous formic acid solution and solvent B- acetonitrile/methanol 80:20.
(§3) The eluants were filtered through a 0.45-µm pore size polyvinylidene difluoride membrane […]
(§4) The following gradients programs were used: […]

[3] = stability in mouse plasma; assay type: in vitro ADME; conditions: 50 μM substrate
Method: as §1, with “4. […]” for “4.”
Stability of PI3K inhibitors in mouse plasma
An aliquot of 460 µL of blank plasma spiked with substrate (50 µM, final concentration, DMSO 5%) was incubated at 37 °C for 30 minutes. Aliquots (70 µL) of the incubation took at 0-2-5-10-20, and 30 minutes were diluted with 140 µL of acetonitrile, homogenized, and centrifuged at 13,000 rpm for five minutes. Supernatants (20 µL) were injected onto HPLC.
as §2, §3, §4

[4] = test system: PI3Ks, all of the isoforms; design: method as in PMID 8106507; conditions: read-out: IC50 against all of the isoforms; cited from earlier work
[5] = test system: PI3Ks; assay: PI3K inhibitory activity of copper salts; assay type: biochemical; conditions: up to 10 μM
Method: With this procedure in hand, we proceeded with our combinatorial strategy. The azides were selected to introduce both electron‐donating and electron‐withdrawing groups, hydrogen‐bond donors and acceptors, and ionizable functions. They were already present in our database or prepared according to standard procedures. […] Then, the 1,2,3‐triazoles were evaluated for their ability to inhibit PI3K isoforms of class I at a fixed concentration of 1 μM, as shown in Table 1. The synthesized 1,2,3‐triazoles along with their ability to inhibit PI3K isoforms at 1 μM concentration are reported. Possibly, a minute concentration of copper salts might have precipitated with the products and might have been retained in the purified compounds, and so, we also evaluated the PI3K inhibitory activity of these salts.

| Residual microsomal substrate (t=60 min) [2] | SMILES | Cell proliferation [1] | inhibition of PI3Ks [5] | other results |
| --- | --- | --- | --- | --- |
| 80% | CCCCCCCCCCCOC(=O)c1cccc(Cn2cc(-c3cccc4c(=O)cc(N5CCOCC5)[nH]c34)nn2)c1 [Compound 75, Undecyl 3‐{[4‐(2‐morpholino‐4‐oxo‐1,4‐dihydroquinolin‐8‐yl)‐1H‐1,2,3‐triazol‐1‐yl]methyl}benzoate] | inactive | – | half-life at 50 µM ([3]; mouse, mouse plasma, 30 min incubation, 37 °C, read-out: Mouse plasma t 1/2): 4.4 min |
| 100% | CCCCCCCCCCCCCCCCCCOC(=O)c1cccc(Cn2cc(-c3cccc4c(=O)cc(N5CCOCC5)[nH]c34)nn2)c1 [Compound 76, Octadecyl 3‐{[4‐(2‐morpholino‐4‐oxo‐1,4‐dihydroquinolin‐8‐yl)‐1H‐1,2,3‐triazol‐1‐yl]methyl}benzoate] | inactive | – | substrate depletion ([2]; 60 min): 0%; hydrolysis by mouse plasma hydrolases ([3]; 30 min): inert to the mouse plasma hydrolases |
| – | O=c1cc(N2CCOCC2)oc2c(-c3ccccc3)cccc12 [LY294002] | – | – | IC50 [4]: ~500 nM |
| – | [Cu+].[I-] [copper(I) iodide] | – | Neither copper(II) acetate nor copper(I) iodide displayed significant inhibition of PI3Ks up to 10 μM | – |
| – | CC(=O)[O-].CC(=O)[O-].[Cu+2] [copper(II) acetate] | – | Neither copper(II) acetate nor copper(I) iodide displayed significant inhibition of PI3Ks up to 10 μM | – |
